From patent US10799522B2, “Compositions and methods relating to galectin detection” (Wayne State University, priority 2015, dated 2020) come the findings set out here.

This test has as its system orthotopic human breast carcinoma xenograft (MCF10DCIS). Nature of the test: dynamic PET/CT imaging, pharmacokinetics and biodistribution in tumor-bearing mice. In kind it is in vivo, immunedeficient nu/nu mice. The note with it: 10 mg/kg i.v. 15 min prior to [^18F]FPDTG; at 60 min post injection. The procedure: A single (unilateral) orthotopic breast carcinoma xenograft was established in immunedeficient nu/nu mice by injection of human breast ductal carcinoma in situ cells (MCF10DCIS) in Matrigel into one of the upper mammary fat pad.
Tumor-bearing mice (˜20-25 g) were anesthetized using inhalation of 2% isoflurane in oxygen, and their body temperature maintained at 38° C. by a heating pad with a feedback temperature control. […] Dynamic PET images were acquired in list-mode and reconstructed using OSEM algorithm at multiple time frames post radiotracer administration (0-2, 2-4, 4-6, 6-8, 8-10, 10-20, 20-30, 30-40, 40-50, 50-60 min). Thereafter, while still fixed to the positioning bed, the mice were moved with the bed into the gantry of INVEON SPECT/CT (Siemens), and CT images were acquired over the whole body area for attenuation correction of PET images and for production of PET/CT images. PET/CT fusion images were generated and analyzed in a similar manner as when studying rats.

For `OC[C@H]1O[C@@H](S[C@@H]2O[C@H](CO)[C@H](O)[C@H](n3cc(-c4cccc(F)c4)nn3)[C@H]2O)[C@H](O)[C@@H](n2cc(-c3cccc(F)c3)nn2)[C@H]1O` [FPTDG, bis-{3-deoxy-3-[4-(3-fluorophenyl)-1H-1,2,3-triazol-1-yl]-β-D-galactopyranosyl)sulfane, reference compound], the “blockade of the radiotracer uptake and retention in DCIS lesion” value is above 90%.
